The text below walks through data of ChEMBL document CHEMBL2046327, “Jomthonic acid , a modified amino acid from a soil-derived Streptomyces” (J Nat Prod, 2012).

For one test, the system named is ST-13. In words: Induction of mouse ST-13 cell differentiation into mature adipocyte at 2 to 50 uM. In kind it is functional, cell-based.
A short description of test [1]: Induction of mouse ST-13 cell differentiation into mature adipocyte at 50 uM. In kind it is functional.
In a further test the test system is MCF7. Kind of test: Cytotoxicity against human MCF7 cells after 48 hrs by MTT assay. In kind it is functional, cell-based. Conditions: MCF7, 48 h. A general note: Tetrazolium assays rely on reduction of a dye to a coloured formazan, in cell work by metabolically active cells.
Another test has as its system Escherichia coli. Kind of test: Antimicrobial activity against Escherichia coli NIH-JC2 after 20 hrs by microplate reader. Conditions: NIH-JC2, 20 h. In kind it is functional.
The subject of the next test is Micrococcus luteus. In words: Antimicrobial activity against Micrococcus luteus ATCC 9343 after 20 hrs by microplate reader. In kind it is functional. Conditions: ATCC 9343, 20 h.
For the next test, the system named is Candida albicans. In words: Antimicrobial activity against Candida albicans IFO1594 after 20 hrs by microplate reader. Conditions: IFO1594, 20 h. It counts as functional.

pIC50: −log10 of the molar value. Activity calls are given as the source filed them. No cut-off for these calls is given here.

One may read the pIC50 as −log10 of the IC50, conventionally taken in molar units. As a reminder, the MIC is the lowest concentration found to suppress growth. A higher MIC goes with weaker potency. Consider `C/C=C(C)/C=C/C(=O)N[C@H](C(=O)O[C@H](C)[C@@H](C)C(=O)O)[C@H](C)c1ccccc1` [JOMTHONIC ACID A], for which the outcome in the test with ST-13 was Active. In test [1], this compound registered an Activity of 80%. The pIC50 with MCF7 is less than 4.00. In addition, the MIC with Escherichia coli, in the test on Micrococcus luteus and in the test on Candida albicans was greater than 50 µg/mL in each case.
